Measurements published in ChEMBL document CHEMBL5724914, “Linking interpersonal differences in gut microbiota composition and drug biotransformation activity” (2024).

Legend:
[1] = (§1) The drug is tested on WLS-007 corresponding to human gut metagenome with ENA study accession number: PRJEB37062 and ENA sample accession number: ERS12561742 for biotransformation under anaerobic condition. The drug concentrations were measured over 9 timepoints collected between 0 and 24 hours of incubation by liquid-chromatography-coupled mass spectrometry (LC–MS); settings: 2 µM
[2] = as §1, with “Z-005” for “WLS-007”, “to” for “to human gut”, “ERS12561805” for “ERS12561742”; settings: 2 µM
[3] = human gut metagenome, 24 h, 2 µM
[4] = as §1, with “Z-009” for “WLS-007”, “pig” for “human”, “ERS12561809” for “ERS12561742”; settings: 2 µM
[5] = as §1, with “WLS-090” for “WLS-007”, “ERS12561753” for “ERS12561742”; settings: 2 µM
[6] = human gut metagenome, 24 h, 2 µM; remark: listed apart in the source
[7] = as §1, with “WLS-370” for “WLS-007”, “ERS12561793” for “ERS12561742”; settings: 2 µM
[8] = as §1, with “Z-008” for “WLS-007”, “to” for “to human gut”, “ERS12561808” for “ERS12561742”; settings: 2 µM
[9] = as §1, with “WLS-073” for “WLS-007”, “ERS12561749” for “ERS12561742”; settings: 2 µM
[10] = human gut metagenome, 24 h, 2 µM; remark: listed apart in the source
[11] = as §1, with “WLS-039” for “WLS-007”, “ERS12561746” for “ERS12561742”; settings: 2 µM
[12] = as §1, with “WLS-052” for “WLS-007”, “ERS12561747” for “ERS12561742”; settings: 2 µM
[13] = as §1, with “WLS-027” for “WLS-007”, “ERS12561744” for “ERS12561742”; settings: 2 µM
[14] = human gut metagenome, 24 h, 2 µM; remark: listed apart in the source
[15] = human gut metagenome, 24 h, 2 µM; remark: listed apart in the source
[16] = as §1, with “Z-006” for “WLS-007”, “mouse” for “human”, “ERS12561806” for “ERS12561742”; settings: 2 µM
[17] = as §1, with “Z-002” for “WLS-007”, “rabbit” for “human”, “ERS12561802” for “ERS12561742”; settings: 2 µM
[18] = human gut metagenome, 24 h, 2 µM; remark: listed apart in the source
[19] = human gut metagenome, 24 h, 2 µM; remark: listed apart in the source
[20] = human gut metagenome, 24 h, 2 µM; remark: listed apart in the source
Also: call rule not given here.

Structure (SMILES) | Bacterial Biotransformation [1] | Bacterial Biotransformation [2] | Bacterial Biotransformation [3] | Bacterial Biotransformation [4] | Bacterial Biotransformation [5] | Bacterial Biotransformation [6] | Bacterial Biotransformation [7] | Bacterial Biotransformation [8] | Bacterial Biotransformation [9] | Bacterial Biotransformation [10] | Bacterial Biotransformation [11] | Bacterial Biotransformation [12] | Bacterial Biotransformation [13] | Bacterial Biotransformation [14] | Bacterial Biotransformation [15] | Bacterial Biotransformation [16] | Bacterial Biotransformation [17] | Bacterial Biotransformation [18] | Bacterial Biotransformation [19] | Bacterial Biotransformation [20]
OCCN(CCO)c1nc(N2CCCCC2)c2nc(N(CCO)CCO)nc(N3CCCCC3)c2n1 [DIPYRIDAMOLE] | Compound metabolized | Compound metabolized | Compound metabolized | Compound metabolized | Compound metabolized | Compound metabolized | Compound metabolized | Compound NOT metabolized | Compound NOT metabolized | Compound NOT metabolized | Compound metabolized | Compound metabolized | Compound metabolized | Compound NOT metabolized | Compound metabolized | Compound NOT metabolized | Compound metabolized | Compound metabolized | Compound NOT metabolized | Compound metabolized
CN(C)CCOC(C)(c1ccccc1)c1ccccn1.O=C(O)CCC(=O)O (stereo not given) [DOXYLAMINE SUCCINATE] | Compound NOT metabolized | Compound NOT metabolized | Compound NOT metabolized | Compound NOT metabolized | Compound NOT metabolized | Compound NOT metabolized | Compound NOT metabolized | Compound NOT metabolized | Compound NOT metabolized | Compound NOT metabolized | Compound NOT metabolized | Compound NOT metabolized | Compound NOT metabolized | Compound NOT metabolized | Compound NOT metabolized | Compound NOT metabolized | Compound NOT metabolized | Compound NOT metabolized | Compound NOT metabolized | Compound NOT metabolized
Br.CN1CCC[C@@H]1Cc1c[nH]c2ccc(CCS(=O)(=O)c3ccccc3)cc12 [ELETRIPTAN HYDROBROMIDE] | Compound metabolized | Compound NOT metabolized | Compound NOT metabolized | Compound NOT metabolized | Compound metabolized | Compound metabolized | Compound NOT metabolized | Compound NOT metabolized | Compound metabolized | Compound NOT metabolized | Compound NOT metabolized | Compound NOT metabolized | Compound NOT metabolized | Compound NOT metabolized | Compound NOT metabolized | Compound NOT metabolized | Compound metabolized | Compound NOT metabolized | Compound metabolized | Compound NOT metabolized
CCOC(=O)[C@H](CCc1ccccc1)N[C@@H](C)C(=O)N1CCC[C@H]1C(=O)O.O=C(O)/C=C\C(=O)O [ENALAPRIL MALEATE] | Compound NOT metabolized | Compound NOT metabolized | Compound NOT metabolized | Compound metabolized | Compound NOT metabolized | Compound NOT metabolized | Compound NOT metabolized | Compound NOT metabolized | Compound NOT metabolized | Compound NOT metabolized | Compound NOT metabolized | Compound NOT metabolized | Compound NOT metabolized | Compound NOT metabolized | Compound NOT metabolized | Compound NOT metabolized | Compound metabolized | Compound NOT metabolized | Compound NOT metabolized | Compound NOT metabolized
